# Test results reported in ChEMBL document CHEMBL1158202, “Plakortides, novel cyclic peroxides from the sponge Plakortis halichondrioides: activators of cardiac SR-CA(2+)-pumping ATPase” (J Nat Prod, 1996).
# Activity calls are given as the source filed them. The calls are words filed in the database; no cut-off is given here.
# Organism: Canis lupus familiaris
# Assay: Induction of Ca2+ uptake in sarcoplasmic reticular-vesicle isolated from dog cardiac ventricle at 10 to 100 uM by fluorimetric method
# Assay type: functional, tissue-based
row,SMILES,Activity
1,CC/C=C/C(CC)CCC[C@@]1(CC)C[C@H](CC)[C@H](CC(=O)OC)OO1 (some centres undefined),Active
2,CC/C=C/C(CC)C[C@@]1(C)C[C@@H](CC)[C@H](CC(=O)OC)OO1 (some centres undefined),Active
3,CC/C=C/C(CC)CCC[C@]1(CC)C[C@H](CC)[C@H](CC(=O)OC)OO1 (some centres undefined),Active
4,CC/C=C/C(CC)C/C(C)=C/[C@]1(CC)C[C@H](CC)[C@H](CC(=O)OC)OO1 (some centres undefined),Active
